Results: patent publication US8877437B1, “Methods of using dyes in association with nucleic acid staining or detection” (Biotium, Inc., priority 2009, dated 2014)
Read-outs that look alike come from different tables or passages of the source.

Key:
[1] = test system: cells; settings: cited from earlier work
[2] = test system: aquatic life; settings: in vivo; cited from earlier work
[3] = cited from earlier work
[4] = test not named; cited from earlier work
[5] = test system: nucleic acid; settings: cited from earlier work
[6] = Stability of dye in gel electrophoresis buffer (room temperature, microwave heating); type: physicochemical
[7] = Hydrolytic and thermal stability for pre-cast gel preparation and storage; type: physicochemical
Source text: In a gel electrophoresis application, an agarose gel may be prepared by heating (via microwave, for example) a suspension of agarose powder in an electrophoresis buffer, such as lithium borate buffer, thereby producing a hot agarose solution, pouring the solution onto a slab, and cooling the solution, thereby producing a useful gel. […] For example, in a pre-cast gel staining application, SYBR Green I dye is generally combined with an agarose solution after the initial agarose suspension has been heated and the resulting agarose solution has been cooled as much as possible. Combining the SYBR Green I dye with the agarose solution in this manner may be a delicate task, as if the temperature of the agarose solution is too high, the dye my decompose, and if the temperature of the agarose solution is too low, the agarose solution may gel up such that the dye and the solution are inadequately combined or mixed. Further by way of example, in a pre-cast gel staining application, a pre-cast gel prepared with SYBR Green I is generally used within 24 hours, as it may lose utility thereafter. […] This dye may offer sufficient to exceptional stability, as well as low or minimal background fluorescence relative to EB and low or minimal toxicity relative to EB, as further described below.

[8] = pre-cast gel containing the dye

CCCN1C=C/C(=C\c2sc3ccccc3[n+]2C)c2ccccc21 [SYBR Safe]
cytotoxicity [1]: cytotoxic at relatively high concentrations | safety to aquatic life [2]: safe to aquatic life

CCCN(CCCN(C)C)c1cc(/C=C2/Sc3ccccc3N2C)c2ccccc2[n+]1-c1ccccc1 [SYBR Green I]
time within which pre-cast gel is used before losing utility [3, 8]: ≤ 24 h | cytotoxicity [1]: cytotoxic at relatively high concentrations

CC[n+]1c(-c2ccccc2)c2cc(N)ccc2c2ccc(N)cc21 [EB, ethidium bromide]
hydrolytic and thermal stability for preparation of a pre-cast gel ([3]; reference dyes, general statement): sufficiently stable, both hydrolytically and thermally | mutagenicity [4]: powerful mutagen

Nc1ccc2c(c1)c(-c1ccccc1)[n+](CCCCCC(=O)NCCCOCCOCCOCCCNC(=O)CCCCC[n+]1c(-c3ccccc3)c3cc(N)ccc3c3ccc(N)cc31)c1cc(N)ccc21.[I-].[I-] [GelRed]
cytotoxicity [1]: noncytotoxic | safety to aquatic life [2]: safe to aquatic life

CN(C)c1ccc2cc3ccc(N(C)C)cc3nc2c1 [AO, Acridine orange]
affinity for nucleic acid [5]: very low

Nc1ccc2c(c1)c(-c1ccccc1)[n+](CCCCCC(=O)NCCCOCCOCCOCCCNC(=O)CCCCC[n+]1c(-c3ccccc3)c3cc(N)ccc3c3ccc(N)cc31)c1cc(N)ccc21 [Dye No. 35]
time heated in a microwave oven without decomposition ([6]; in TBE buffer): at least 10 minutes | time stable in electrophoresis buffer ([6]; lithium borate buffer, room temperature): at least 6 months | hydrolytic and thermal stability for preparation of a pre-cast gel [7]: sufficient hydrolytic and thermal stability | storage of pre-cast gel without loss of performance [7, 8]: at least 3 months

CN(C)c1ccc2cc3ccc(N(C)C)cc3[n+](CCCCCC(=O)NCCCOCCOCCOCCCNC(=O)CCCCC[n+]3c4cc(N(C)C)ccc4cc4ccc(N(C)C)cc43)c2c1.[I-].[I-] [GelGreen]
cytotoxicity [1]: noncytotoxic | safety to aquatic life [2]: safe to aquatic life
